According to PMC8453901, “GLPG1205, a GPR84 Modulator: Safety, Pharmacokinetics, and Pharmacodynamics in Healthy Subjects” (Clinical Pharmacology in Drug Development, 2021):

Test: Safety and tolerability, study 1 SAD part
Assay type: in vivo, human
Method: Safety and tolerability were assessed on the basis of adverse events (AEs), which were monitored throughout both studies. Additional safety assessments included vital signs (including supine [and standing in study 2] heart rate, systolic and diastolic blood pressure, and oral body temperature), 12‐lead electrocardiogram (ECG), clinical laboratory tests (hematology, coagulation [study 2 only], serum/plasma chemistry, urinalysis, urine drug screen, serology, and alcohol breath test), and a comprehensive physical examination. In the SAD part of study 1, clinical laboratory tests, physical examination, and vital signs were assessed at the screening visit, at the time of dosing (0 hours after dose), 24 hours after dosing and at follow‐up (7 to 10 days after the final dose). Vital signs were additionally observed 2 hours after dosing, and the 12‐lead ECG was additionally completed at 1, 2, 6, 8, and 12 hours after dosing. In the MAD part of study 1, all additional safety assessments were performed at screening; days 1, 2, 8, 14, and 15; and at follow‐up. In study 2, additional safety assessments were performed at screening (between 21 and 2 days before the first study drug administration); days 1, 2, 5, 10, 14, 15, and 20 (clinical laboratory tests were not performed on day 20); at early discontinuation; and at follow‐up. For study 2, renal function tests (measurement of estimated creatinine clearance rate using the Cockcroft‐Gault equation) were also included in the clinical laboratory tests for safety assessment.
In both studies, the safety analysis was descriptive and focused on changes from baseline and treatment‐emergent findings.

SMILES: O=c1nc(OC[C@@H]2COCCO2)cc2n1CCc1cc(C#CC3CC3)ccc1-2 [GLPG1205, 9‐cyclopropylethynyl‐2‐((S)‐1‐[1,4]dioxan‐2‐ylmethoxy)‐6,7‐dihydropyrimido[6,1‐a]isoquinolin‐4‐one]
- subjects with nausea (most frequent TEAE) (SAD part, all doses): 4 subjects
- Any TEAE (single 10 mg (n = 6)): 2 (33.3) number of subjects (%)
- Dizziness (TEAE) (single 10 mg (n = 6)): 0 number of subjects (%)
- Gastrointestinal disorders (TEAE) (single 10 mg (n = 6)): 0 number of subjects (%)
- Headache (TEAE) (single 10 mg (n = 6)): 1 (16.7) number of subjects (%)
- Hot flush (TEAE) (single 10 mg (n = 6)): 0 number of subjects (%)
- Infections and infestations (TEAE) (single 10 mg (n = 6)): 1 (16.7) number of subjects (%)
- Musculoskeletal and connective tissue disorders (TEAE) (single 10 mg (n = 6)): 0 number of subjects (%)
- Nausea (TEAE) (single 10 mg (n = 6)): 0 number of subjects (%)
- Nervous system disorders (TEAE) (single 10 mg (n = 6)): 1 (16.7) number of subjects (%)
- Oropharyngeal pain (TEAE) (single 10 mg (n = 6)): 0 number of subjects (%)
- Respiratory, thoracic, and mediastinal disorders (TEAE) (single 10 mg (n = 6)): 0 number of subjects (%)
- Somnolence (TEAE) (single 10 mg (n = 6)): 0 number of subjects (%)
- Torticollis (TEAE) (single 10 mg (n = 6)): 0 number of subjects (%)
- Urethritis chlamydial (TEAE) (single 10 mg (n = 6)): 1 (16.7) number of subjects (%)
- Vascular disorders (TEAE) (single 10 mg (n = 6)): 0 number of subjects (%)
- Any TEAE (single 30 mg (n = 6)): 1 (16.7) number of subjects (%)
- Dizziness (TEAE) (single 30 mg (n = 6)): 0 number of subjects (%)
- Gastrointestinal disorders (TEAE) (single 30 mg (n = 6)): 0 number of subjects (%)
- Headache (TEAE) (single 30 mg (n = 6)): 0 number of subjects (%)
- Hot flush (TEAE) (single 30 mg (n = 6)): 0 number of subjects (%)
- Infections and infestations (TEAE) (single 30 mg (n = 6)): 0 number of subjects (%)
- Musculoskeletal and connective tissue disorders (TEAE) (single 30 mg (n = 6)): 0 number of subjects (%)
- Nausea (TEAE) (single 30 mg (n = 6)): 0 number of subjects (%)
- Nervous system disorders (TEAE) (single 30 mg (n = 6)): 1 (16.7) number of subjects (%)
- Oropharyngeal pain (TEAE) (single 30 mg (n = 6)): 0 number of subjects (%)
- Respiratory, thoracic, and mediastinal disorders (TEAE) (single 30 mg (n = 6)): 0 number of subjects (%)
- Somnolence (TEAE) (single 30 mg (n = 6)): 1 (16.7) number of subjects (%)
- Torticollis (TEAE) (single 30 mg (n = 6)): 0 number of subjects (%)
- Urethritis chlamydial (TEAE) (single 30 mg (n = 6)): 0 number of subjects (%)
- Vascular disorders (TEAE) (single 30 mg (n = 6)): 0 number of subjects (%)
- Any TEAE (single 90 mg (n = 6)): 0 number of subjects (%)
- Dizziness (TEAE) (single 90 mg (n = 6)): 0 number of subjects (%)
- Gastrointestinal disorders (TEAE) (single 90 mg (n = 6)): 0 number of subjects (%)
- Headache (TEAE) (single 90 mg (n = 6)): 0 number of subjects (%)
- Hot flush (TEAE) (single 90 mg (n = 6)): 0 number of subjects (%)
- Infections and infestations (TEAE) (single 90 mg (n = 6)): 0 number of subjects (%)
- Musculoskeletal and connective tissue disorders (TEAE) (single 90 mg (n = 6)): 0 number of subjects (%)
- Nausea (TEAE) (single 90 mg (n = 6)): 0 number of subjects (%)
- Nervous system disorders (TEAE) (single 90 mg (n = 6)): 0 number of subjects (%)
- Oropharyngeal pain (TEAE) (single 90 mg (n = 6)): 0 number of subjects (%)
- Respiratory, thoracic, and mediastinal disorders (TEAE) (single 90 mg (n = 6)): 0 number of subjects (%)
- Somnolence (TEAE) (single 90 mg (n = 6)): 0 number of subjects (%)
- Torticollis (TEAE) (single 90 mg (n = 6)): 0 number of subjects (%)
- Urethritis chlamydial (TEAE) (single 90 mg (n = 6)): 0 number of subjects (%)
- Vascular disorders (TEAE) (single 90 mg (n = 6)): 0 number of subjects (%)
- Any TEAE (single 200 mg (n = 6)): 1 (16.7) number of subjects (%)
- Dizziness (TEAE) (single 200 mg (n = 6)): 0 number of subjects (%)
- Gastrointestinal disorders (TEAE) (single 200 mg (n = 6)): 1 (16.7) number of subjects (%)
- Headache (TEAE) (single 200 mg (n = 6)): 0 number of subjects (%)
- Hot flush (TEAE) (single 200 mg (n = 6)): 0 number of subjects (%)
- Infections and infestations (TEAE) (single 200 mg (n = 6)): 0 number of subjects (%)
- Musculoskeletal and connective tissue disorders (TEAE) (single 200 mg (n = 6)): 0 number of subjects (%)
- Nausea (TEAE) (single 200 mg (n = 6)): 1 (16.7) number of subjects (%)
- Nervous system disorders (TEAE) (single 200 mg (n = 6)): 0 number of subjects (%)
- Oropharyngeal pain (TEAE) (single 200 mg (n = 6)): 0 number of subjects (%)
- Respiratory, thoracic, and mediastinal disorders (TEAE) (single 200 mg (n = 6)): 0 number of subjects (%)
- Somnolence (TEAE) (single 200 mg (n = 6)): 0 number of subjects (%)
- Torticollis (TEAE) (single 200 mg (n = 6)): 0 number of subjects (%)
- Urethritis chlamydial (TEAE) (single 200 mg (n = 6)): 0 number of subjects (%)
- Vascular disorders (TEAE) (single 200 mg (n = 6)): 0 number of subjects (%)
- Any TEAE (single 400 mg (n = 6)): 3 (50.0) number of subjects (%)
- Dizziness (TEAE) (single 400 mg (n = 6)): 0 number of subjects (%)
- Gastrointestinal disorders (TEAE) (single 400 mg (n = 6)): 1 (16.7) number of subjects (%)
- Headache (TEAE) (single 400 mg (n = 6)): 1 (16.7) number of subjects (%)
- Hot flush (TEAE) (single 400 mg (n = 6)): 1 (16.7) number of subjects (%)
- Infections and infestations (TEAE) (single 400 mg (n = 6)): 0 number of subjects (%)
- Musculoskeletal and connective tissue disorders (TEAE) (single 400 mg (n = 6)): 1 (16.7) number of subjects (%)
- Nausea (TEAE) (single 400 mg (n = 6)): 1 (16.7) number of subjects (%)
- Nervous system disorders (TEAE) (single 400 mg (n = 6)): 1 (16.7) number of subjects (%)
- Oropharyngeal pain (TEAE) (single 400 mg (n = 6)): 0 number of subjects (%)
- Respiratory, thoracic, and mediastinal disorders (TEAE) (single 400 mg (n = 6)): 0 number of subjects (%)
- Somnolence (TEAE) (single 400 mg (n = 6)): 0 number of subjects (%)
- Torticollis (TEAE) (single 400 mg (n = 6)): 1 (16.7) number of subjects (%)
- Urethritis chlamydial (TEAE) (single 400 mg (n = 6)): 0 number of subjects (%)
- Vascular disorders (TEAE) (single 400 mg (n = 6)): 1 (16.7) number of subjects (%)
- Any TEAE (single 600 mg (n = 6)): 0 number of subjects (%)
- Dizziness (TEAE) (single 600 mg (n = 6)): 0 number of subjects (%)
- Gastrointestinal disorders (TEAE) (single 600 mg (n = 6)): 0 number of subjects (%)
- Headache (TEAE) (single 600 mg (n = 6)): 0 number of subjects (%)
- Hot flush (TEAE) (single 600 mg (n = 6)): 0 number of subjects (%)
- Infections and infestations (TEAE) (single 600 mg (n = 6)): 0 number of subjects (%)
- Musculoskeletal and connective tissue disorders (TEAE) (single 600 mg (n = 6)): 0 number of subjects (%)
- Nausea (TEAE) (single 600 mg (n = 6)): 0 number of subjects (%)
- Nervous system disorders (TEAE) (single 600 mg (n = 6)): 0 number of subjects (%)
- Oropharyngeal pain (TEAE) (single 600 mg (n = 6)): 0 number of subjects (%)
- Respiratory, thoracic, and mediastinal disorders (TEAE) (single 600 mg (n = 6)): 0 number of subjects (%)
- Somnolence (TEAE) (single 600 mg (n = 6)): 0 number of subjects (%)
- Torticollis (TEAE) (single 600 mg (n = 6)): 0 number of subjects (%)
- Urethritis chlamydial (TEAE) (single 600 mg (n = 6)): 0 number of subjects (%)
- Vascular disorders (TEAE) (single 600 mg (n = 6)): 0 number of subjects (%)
- Any TEAE (single 800 mg (n = 6)): 5 (83.3) number of subjects (%)
- Dizziness (TEAE) (single 800 mg (n = 6)): 1 (16.7) number of subjects (%)
- Gastrointestinal disorders (TEAE) (single 800 mg (n = 6)): 2 (33.3) number of subjects (%)
- Headache (TEAE) (single 800 mg (n = 6)): 1 (16.7) number of subjects (%)
- Hot flush (TEAE) (single 800 mg (n = 6)): 0 number of subjects (%)
- Infections and infestations (TEAE) (single 800 mg (n = 6)): 0 number of subjects (%)
- Musculoskeletal and connective tissue disorders (TEAE) (single 800 mg (n = 6)): 0 number of subjects (%)
- Nausea (TEAE) (single 800 mg (n = 6)): 2 (33.3) number of subjects (%)
- Nervous system disorders (TEAE) (single 800 mg (n = 6)): 3 (50.0) number of subjects (%)
- Oropharyngeal pain (TEAE) (single 800 mg (n = 6)): 2 (33.3) number of subjects (%)
- Respiratory, thoracic, and mediastinal disorders (TEAE) (single 800 mg (n = 6)): 2 (33.3) number of subjects (%)
- Somnolence (TEAE) (single 800 mg (n = 6)): 1 (16.7) number of subjects (%)
- Torticollis (TEAE) (single 800 mg (n = 6)): 0 number of subjects (%)
- Urethritis chlamydial (TEAE) (single 800 mg (n = 6)): 0 number of subjects (%)
- Vascular disorders (TEAE) (single 800 mg (n = 6)): 0 number of subjects (%)
